Data reported in the supplement of paper PMC6723410.

Key:
GUMC-403 [1] = experiment: AC50 for reduction of cell viability; higher = less potent; settings: 48 h
GUMC-403 [2] = experiment: viability at highest tested concentration (max response) relative to DMSO (% of DMSO control); higher = less cytotoxic; settings: library / dose series: MIPE library, 11-point 1:3 dilution, 48 h
Method in brief: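 Plates of 1536 wells were seeded with 700 patient-derived GUMC-403 papilloma cells per well, grown by conditional reprogramming, in 5 μL F + Y medium and kept overnight at 37 °C. Compounds followed at 23 nL by pin tool over an 11-point 1:3 series, for 48 h. After a CellTiter-Glo luminescence read on a ViewLux, signals were set against vehicle wells as 100% and empty wells as 0%. The reported number is viability at the highest tested concentration relative to vehicle control.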

[3] = library / dose series: NPC library, 8-point 1:5 dilution
[4] = library / dose series: MIPE library, 11-point 1:3 dilution

Row | Structure (SMILES) | AC50 for reduction of cell viability (GUMC-403 [1]; [3]) [nM] | viability (GUMC-403 [2]; top concentration 46.1 µM) | AC50 for reduction of cell viability (GUMC-403 [1]; [4]) [nM] | viability (GUMC-403 [2]; top concentration 92.2 µM)
1 | CC(C)n1nc(-c2cc3cc(O)ccc3[nH]2)c2c(N)ncnc21 | 1190 | 69.2 | – | –
2 | Cc1cc(Nc2ncc3c(n2)N(C)C(=O)N(c2cc(NC(=O)c4cccc(C(F)(F)F)c4)ccc2C)C3)n(C)n1 | – | 53.5 | 743 | –
3 | CC[C@H](NC1=C2N=C[NH]C2=NC=N1)C/3=N/C4=C(C(=CC=C4)F)C(=O)N3C5=CC=CC=C5 | – | 75.5 | 3720 | –
4 | Cc1cnc(Nc2ccc(N3CCN(C)CC3)cc2)nc1Nc1cccc([S+](=O)([O-])NC(C)(C)C)c1 | – | 30.2 | 16600 | –
5 | COc1cc2ncn(-c3cc(OCc4ccccc4C(F)(F)F)c(C(N)=O)s3)c2cc1OC | – | 18.8 | 23500 | –
6 | CC(=O)N1CCN(c2ccc(OCc3nn(C)c(C)c3-c3cccc4c(CCCOc5cccc6ccccc56)c(C(=O)O)n(Cc5cccnc5)c34)cc2)CC1 | – | 3.86 | 7430 | –
7 | CN(C)CCCN1c2ccccc2CCc2ccc(Cl)cc21 | – | 36 | 1320 | –
8 | Cc1c(CN2CCN(C(=O)[C@H](C)O)CC2)sc2c(N3CCOCC3)nc(-c3cnc(N)nc3)nc12 | – | 54.1 | 148 | –
9 | CC(C)C[C@H](NC(=O)CNC(=O)c1cc(Cl)ccc1Cl)B(O)O | – | 14.7 | 3320 | –
10 | C/C=C1\NC(=O)[C@H]2CSSCC/C=C\[C@H](CC(=O)N[C@H](C(C)C)C(=O)N2)OC(=O)[C@H](C(C)C)NC1=O | – | 6.97 | 105 | –
11 | COC[C@H](NC(=O)c1cnc(C)s1)C(=O)N[C@@H](COC)C(=O)N[C@@H](Cc1ccccc1)C(=O)[C@@]1(C)CO1 | – | 8.89 | 6620 | –
12 | CC(C)C[C@H](NC(=O)CNC(=O)c1cc(Cl)ccc1Cl)B1OC(=O)CC(CC(=O)O)(C(=O)O)O1 (stereo partly specified) | – | 38.8 | 2350 | –
13 | Cc1ccc(C(N)=O)cc1Nc1nccc(-c2cn(C(C)C)c3cnccc23)n1 | – | 30 | 8330 | –
14 | C[S+](=O)([O-])CCNCc1ccc(-c2ccc3ncnc(Nc4ccc(OCc5cccc(F)c5)c(Cl)c4)c3c2)o1 | – | 8.12 | 10500 | –
15 | CC(C)N[C@@H]1CCn2c(=O)[nH]c3cccc(c32)[C@H]1O | – | 30.4 | 9350 | –
16 | CN(C)c1ccc2nc3ccc(N(C)C)cc3[s+]c2c1 | – | 6.57 | 7430 | –
17 | C[C@@H](Oc1ccc2[nH]nc(/C=C/c3cnn(CCO)c3)c2c1)c1c(Cl)cncc1Cl | – | 18.4 | 16600 | –
18 | Nc1cc(C(F)(F)F)c(-c2cc(N3CCOCC3)nc(N3CCOCC3)n2)cn1 | – | 44 | 1480 | –
19 | CC(=O)[C@]1(O)Cc2c(O)c3c(c(O)c2[C@@H](O[C@H]2C[C@H](N)[C@H](O)[C@H](C)O2)C1)C(=O)c1ccccc1C3=O | – | 7.29 | 2350 | –
20 | CS[C@H]1SC[C@@H]2C(=O)N(C)[C@H](C(C)C)C(=O)OC[C@H](NC(=O)c3cnc4ccccc4n3)C(=O)N[C@H](C)C(=O)N(C)[C@H]1C(=O)N(C)[C@H](C(C)C)C(=O)OC[C@H](NC(=O)c1cnc3ccccc3n1)C(=O)N[C@H](C)C(=O)N2C | – | 14.4 | 20.9 | –
21 | c1cncc(CN2CCC(n3ncc4c(N5CCOCC5)nc(-c5ccc6[nH]ccc6c5)nc43)CC2)c1 | – | 62.6 | 332 | –
22 | CC(C)(O)Cn1c(NC(=O)c2ccc(-c3cn[nH]c3)s2)nc2cc(CN3CCOCC3)ccc21 | – | 5.55 | 2350 | –
23 | N#CC(=C(/N)Sc1ccccc1N)/C(C#N)=C(\N)Sc1ccccc1N | – | 50.4 | 4690 | –

Row | Structure (SMILES) | AC50 for reduction of cell viability (GUMC-403 [1]; [3]) [nM] | viability (GUMC-403 [2]; top concentration 46.1 µM) | AC50 for reduction of cell viability (GUMC-403 [1]; [4]) [nM] | viability (GUMC-403 [2]; top concentration 92.2 µM)
24 | N[S+](=O)([O-])c1cccc2c1C(=O)c1cccc(O)c1C2=O | – | 4.44 | 13200 | –
25 | CCC[C@H](NC(=O)/C(C#N)=C/c1cccc(Br)n1)c1ccccc1 | – | 19.1 | 16600 | –
26 | O=C(/C=C/c1ccc(CN(CCO)CCc2c[nH]c3ccccc23)cc1)NO | – | 44.9 | 5900 | –
27 | COc1ncc(-c2ccc3nccc(-c4ccnnc4)c3c2)cc1N[S+](=O)([O-])c1ccc(F)cc1F | – | 9.41 | 590 | –
28 | C[C@@]12OC(=O)[C@@]1(NC(=O)[C@@H]2CCCl)[C@@H](O)[C@H]\3CCC\C=C3 | – | 6.32 | 3720 | –
29 | O=C(OC)[C@]12CC[C@@]3(C)[C@]4(C)CC[C@H]5[C@@](C)(C)C(=O)C(=C[C@]5(C)C4=CC(=O)[C@@H]3[C@@H]2C[C@](C)(C)CC1)C#N | – | 4.67 | 2960 | –
30 | C=CC(=O)Nc1cccc(Oc2nc(Nc3ccc(N4CCN(C)CC4)cc3OC)ncc2Cl)c1 | – | 65.2 | 590 | –
31 | O=C(NOCC1CC1)c1ccc(F)c(F)c1Nc1ccc(I)cc1Cl | 13300 | 20.7 | 23500 | –
32 | COC(=O)CCC1=C(C)C2=CC3=NC(=CC4=C(C)C(=C([NH]4)C=C\5N=C(C=C1[NH]2)\C(=C5C)CCC(O)=O)C=C)\C6=C\C=C(/[C@@H](C(=O)OC)[C@@]36C)C(=O)OC | – | 32.5 | 662 | –
33 | C[C@H]1O[C@H](C[C@H](O)[C@@H]1O)O[C@H]2[C@@H](O)C[C@@H](O[C@@H]2C)O[C@H]3[C@@H](O)C[C@@H](O[C@@H]3C)O[C@H]4CC[C@@]5(C)[C@H](CC[C@@H]6[C@@H]5C[C@@H](O)[C@]7(C)[C@H](CC[C@]67O)C/8=C/C(=O)OC8)C4 | – | – | 191 | 48.5
34 | CN1CC[C@H]([C@@H](O)C1)C2=C(O)C=C(O)C3=C2O\C(=C/C3=O)C4=CC=CC=C4Cl | – | 61.2 | 132 | –
35 | COc1ccc([C@@H]2CNC(=O)C2)cc1OC1CCCC1 | – | 51 | 2960 | –
36 | C/C=C(/C)C(=O)O[C@H]1C(C)=C2[C@H]([C@@H]1OC(=O)CCCCCCC)[C@@](C)(OC(C)=O)C[C@H](OC(=O)CCC)[C@@]1(O)[C@H]2OC(=O)[C@@]1(C)O | – | 57.2 | 526 | –
37 | C1=C/COCc2cc(ccc2OCCN2CCCC2)Nc2nccc(n2)-c2cccc(c2)OCC/1 | – | 76.3 | 7430 | –
38 | COc1ccc(-c2ccc3ncc4c(c3c2)n(-c2ccc(N3CCNCC3)c(C(F)(F)F)c2)c(=O)n4C)cn1 | – | 3.16 | 8330 | –
39 | O=C(NC1CCNCC1)c1n[nH]cc1NC(=O)c1c(Cl)cccc1Cl | – | 10.5 | 1050 | –
40 | Cc1ccc(NC(=O)C2(c3ccc4c(c3)OC(F)(F)O4)CC2)nc1-c1cccc(C(=O)O)c1 | – | 6.42 | 1660 | –
41 | CC1(C)Cc2c(sc(NC(=S)NC(=O)c3ccccc3)c2C(=O)O)CO1 | – | 25.5 | 26400 | –
42 | CC(C)(C)c1cnc(CSc2cnc(NC(=O)C3CCNCC3)s2)o1 | – | 24.3 | 469 | –
43 | COCCn1c2c([n+](Cc3cnccn3)c1C)C(=O)c1ccccc1C2=O | – | 5.13 | 187 | –
44 | CC(C)NC[C@@H](C(=O)N1CCN(c2ncnc3c2[C@H](C)C[C@H]3O)CC1)c1ccc(Cl)cc1 | – | 76.6 | 2350 | –
45 | C[C@@H]\1COC(=N1)\NC2=CC3=C(C=C2)N=CN=C3NC4=CC(=C(OCC5=NC=CS5)C=C4)Cl | – | 54.5 | 590 | –
